Results as given in patent US8030452B2, “IFBM'S to promote the specific attachment of target analytes to the surface of orthopedic implants” (priority 2004, dated 2011).
pEC50: −log10 of the molar value.

How the values were obtained:
[1] = target: BMP on collagen sponge (Homo sapiens, UniProt P12643)
Protocol: To each well, a 2/16″ diameter collagen sponge (Medtronic) was added. The collagen and peptide solutions were allowed to incubate for 1.5 hours at room temperature. Sponges were then rinsed three times with 200 μL Medtronic buffer at 2200 rpm for 1 minute. To each sponge, a primary antibody directed at BMP (diluted 1:1000; R&D Systems #MAB3552) was added for 1 hour at room temperature. A secondary antibody conjugated to alkaline phosphatase (1:5000) was then incubated in the system for 0.5 hour at room temperature.

[2] = target: T1, BMP-2 (Homo sapiens, UniProt P12643); test: Binding of biotinylated peptides to BMP-2 (FIG. 12); conditions: biotinylated peptide
T1 construct: purchased Medtronic
T1 sequence (P12643 283-396): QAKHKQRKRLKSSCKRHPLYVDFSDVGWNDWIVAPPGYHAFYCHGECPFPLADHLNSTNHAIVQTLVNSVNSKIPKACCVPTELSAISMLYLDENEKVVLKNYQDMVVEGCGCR
Protocol: Briefly, peptide stock solutions were made by dissolving the powder in 100% DMSO to make a 10 mM solution of peptide, water was then added for a final stock concentration of peptide of 1 mM in 10% DMSO. Serial dilutions of the peptide were made in PBS-T. A dilution series of BMP-2 with concentrations ranging from 100 nM to 0.1 nM was immobilized onto the wells of microtiter plates (Immulon-4® HBX from Dynex Technologies, Chantilly, Va.) and blocked with 1% BSA. […] The […] were washed 3 times with PBS-T. Streptavidin-alkaline phosphatase (SA-AP) from USB (United States Biochemical, catalog #11687) was added (1:1000 in PBS-T) and incubated 1 hour at room temperature with shaking. The plates were washed 3 times with PBS-T and the amount of peptide:SA-AP was determined by adding PNPP (Sigma-Aldrich, Inc., SigmaFast tablets, catalog #N1891) and allowing the color to develop for about 10 minutes.
To confirm these BMP binding results, the peptides were also tested in an alternate assay format in which the peptide and BMP2 were allowed to bind in solution and then assayed. Briefly, the peptides were synthesized with a biotin group attached to the ε amino group of a lysine residue at the C-terminus of the peptide. […] The plates were washed with TBS-Tween™ 20 and the antibody binding was detected using the chromogenic AP substrate pNPP. […]

[3] = target: T2, BMP-4 (Homo sapiens, UniProt P12644); test: Binding of biotinylated peptides to BMP-4 (FIG. 12); conditions: biotinylated peptide
T2 sequence (P12644 293-408): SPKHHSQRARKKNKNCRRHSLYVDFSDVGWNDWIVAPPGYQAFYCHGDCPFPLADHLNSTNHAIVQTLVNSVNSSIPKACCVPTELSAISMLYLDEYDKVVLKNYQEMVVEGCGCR

[4] = target: T3, BMP-7 (Homo sapiens, UniProt P18075); test: Binding of biotinylated peptides to BMP-7 (FIG. 12); conditions: biotinylated peptide
T3 sequence (P18075 293-431): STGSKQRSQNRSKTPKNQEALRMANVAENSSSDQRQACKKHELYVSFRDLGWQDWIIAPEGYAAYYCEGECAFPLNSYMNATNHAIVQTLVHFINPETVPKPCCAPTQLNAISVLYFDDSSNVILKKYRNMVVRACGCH

[5] = for binding to titanium: FIG. 3; for pEC50: read-out: [peptide] ½ maximal signal (relative affinity for titanium), biotin-conjugated peptide, titanium beads, 1 hour room temperature, absorbance 405 nm
Protocol: AFF6007 and AFF6010 were prepared at 200 μM.
Beads were washed two times with PBS/Tween™ 20.

Substance: DVNSIWMSRVIEWTYDSGSSGKSRSSDSAFSSFSALEGSVVSR-NH2 [AFF7008]
- BMP retained on collagen sponge [1]: increase the amount of BMP on the sponge when compared to no IFBM, but to a lesser extent than AFF7010

Substance: DVNSIWMSRVIEWTYDSGSSGKSSDWGVVASAWDAFEALDASR-NH2 [AFF7017]
- BMP retained on collagen sponge [1]: increase the amount of BMP on the sponge when compared to no IFBM, but to a lesser extent than AFF7010

Substance: DVNSIWMSRVIEWTYDSGSSGKSSFEPLRFPLKGVPVSR-NH2 [AFF7006]
- amount of BMP-2 retained on collagen with increasing IFBM concentration [1]: leads to a larger amount of BMP-2 that is retained on the collagen

Substance: DVNSIWMSRVIEWTYDSGSSGKSSSVDLYFPLKGDVVSR-NH2 [AFF7010]
- BMP retained on collagen sponge [1]: retains more BMP on the sponge than the sponges without IFBM
- amount of BMP-2 retained on collagen with increasing IFBM concentration [1]: leads to a larger amount of BMP-2 that is retained on the collagen

Substance: SRGGEAAAGAWVSFSALESSR [compound 2007]
- binding to BMP-2 [2]: bound
- binding to BMP-4 [3]: bound
- binding to BMP-7 [4]: bound

Substance: SSDWGVVASAWDAFEALDASR [compound 2011]
- binding to BMP-2 [2]: bound
- binding to BMP-4 [3]: bound
- binding to BMP-7 [4]: bound

Substance: SSFEPLRFPLKGVPVSRGSSGKDVNSIWMSRVIEWTYDS-NH2 [AFF7005]
- amount of BMP-2 retained on collagen with increasing IFBM concentration [1]: leads to a larger amount of BMP-2 that is retained on the collagen

Substance: SSSDKCHKHWYCYESKYGGSGSSGK [AFF6007]
- binding to titanium [5]: bind to titanium
- pEC50 [5]: 6.46

Substance: SSSDKSHKHWYSYESKYGGSGSSGK [AFF6010]
- decrease of affinity for titanium on elimination of the cysteine residues of AFF6007 ([5]; AFF6010 versus AFF6007): about 10 fold
- binding to titanium [5]: bind to titanium
- pEC50 [5]: 5.52

Substance: SSSVDLYFPLKGDVVSRGSSGKDVNSIWMSRVIEWTYDS-NH2 [AFF7009]
- amount of BMP-2 retained on collagen with increasing IFBM concentration [1]: leads to a larger amount of BMP-2 that is retained on the collagen
